Drawing on ChEMBL document CHEMBL3430850, “MMV Malaria Box gametocyte standard membrane feeding assay screening”, this text covers IC50 for 18 molecules.

This test in a line: MMV: Gametocytes from P. falciparum reporter strain NF54-deltaPf47-5'hsp70-GFP::Luc were exposed to serial dilutions of compounds for 24 hours. Subsequently, compounds were washed out and gametocytes were fed to Anopheles stephensi mosquitoes. Three compounds were tested at six dilutions in one experimental run. All conditions were tested in duplicate in two different experimental runs. Each run included duplicate feeders for vehicle (0.1% DMSO) and positive (10 uM dihydroartemisinin) controls. Eight days post-feeding, oocyst densities were determined by assessment of luminescence signals in homogenized mosquitoes. Up to 24 mosquitoes were analysed per feeder. Luminescence data from individual mosquitoes were normalized against the average signals from the vehicle control feeds that were included in each run. IC50 values were determined by fitting a four-parameter logistic regression model using maximum likelihood optimization to find the best fit. In kind it is functional, Plasmodium falciparum.

The IC50 is the concentration that gives 50% inhibition. For the molecule `CC(C)(C)c1ccc2c(c1)CN(Cc1ccc(Cl)cc1)CO2`, the IC50 (read-out: IC50) came out at 589 nM.
The same measure, in the same setting: to `CCOC(=O)c1cn(CC)c2cc(N3CCCCC3)c(F)cc2c1=O` belongs 95.5 nM.
On the same count and under the same terms, in the case of `CC1=C(CC(=O)c2cccc([N+](=O)[O-])c2)C(=O)c2ccccc2C1=O` it was 1410 nM; in that of `COc1ccc(-c2c(C)nn3c(N)c(C#N)cnc23)cc1OC`, 3630 nM.
`OC(CNC1CCCCC1)Cn1c2ccc(I)cc2c2cc(I)ccc21` (stereo not drawn): the IC50 entry is “Not active”.
`CN(C)CCCNc1c2ccccc2nc2ccccc12`: the IC50 (read-out: IC50) came out at 1170 nM.
For the molecule `CCOC(=O)C1=C(C)N=c2sc(=Cc3cc(Cl)ccc3O)c(=O)n2C1c1ccc(OC)cc1` (stereo not drawn), the IC50 (read-out: IC50) was 3240 nM.
Still for that read-out and setting: to `Cc1ccc(-c2cc3c(nn2)-c2ccccc2C3=O)cc1` belongs 1260 nM; to `OC1CCCCC1C1(NC(=S)Nc2ccccc2)CCCCC1` (stereo not drawn), 1740 nM.
Same read-out and setting: in the case of `Clc1cc(Br)ccc1-c1ccc(CNCC2CCNCC2)o1` it was 74.1 nM.
On the same count and under the same terms, to `CCOC(=O)c1cnc2ccc(CC)cc2c1O` belongs 110 nM; to `O=C(NC1CCN(Cc2ccccc2)CC1)c1cc(C(=O)NC2CCN(Cc3ccccc3)CC2)cc(C(=O)NC2CCN(Cc3ccccc3)CC2)c1`, 1170 nM; to `Cc1sc2ncnc(Sc3nc4ccccc4[nH]3)c2c1C`, 1290 nM.
As to `CC1CN(C(=O)c2sc3ccccc3c2Cl)CC(C)O1` (stereo not drawn), the IC50 entry is recorded as “Not active”.
For `CN(C)c1ccc(C(O)(c2ccc(N(C)C)cc2)c2ccc(N(C)C)cc2)cc1` [METHYLROSANILINE], the IC50 (read-out: IC50) amounted to 38.9 nM.
Regarding `COc1ccc(C2c3ccc4ccccc4c3Oc3ncn(CCCN(C)C)c(=N)c32)cc1` (stereo not drawn), the half-inhibitory concentration (IC50) (read-out: IC50) stood at 58.9 nM.
The same measure, in the same setting: in the case of `CCN(CC)CCn1c(=N)n(CC(O)c2ccc(Cl)c(Cl)c2)c2ccccc21` (stereo not drawn) it was 1660 nM; in that of `COC(=O)c1ccc(C2C3=C(O)CC(c4ccc(F)cc4)CC3=Nc3ccccc3N2C(=O)c2ccccc2)cc1` (stereo not drawn), 8510 nM.
